Reference: patent US20200001104A1, “SCALABLE MAGNETOMECHANICAL SCHEMES AND DEVICES FOR REMOTE CONTROL OF MECHANOSENSITIVE CELLS” (Massachusetts Institute of Technology, priority 2018, published 2020)
“Also recorded” adds a separate entry of the source. Read-outs that look alike come from different tables or passages of the source.

System: dorsal root ganglion (DRG) explant cultures
Experiment: Magnetomechanical stimulation in the presence of channel blockers, calcium imaging
Format: cell-based, rat
[1] = blocker at 100 μM, MNDs plus MF
[2] = cells incubated with blocker, all doses, one-way ANOVA, n=6

Compound: [Cl][Gd]([Cl])[Cl] [Gd^3+, Gadolinium(III) (Gd^3+) chloride]
- Ca2+ response to magnetomechanical stimulation [1]: enhanced response; also recorded: increases Ca^2+ influx
- Ca2+ response to magnetomechanical stimulation (blocker at 1000 μM (1 mM), MNDs plus MF): reduced response; also recorded: nearly eliminates Ca^2+ activity
- fraction of cells responding to magnetomechanical stimulation (blocker at 1 mM, one-way ANOVA and Tukey's HSD, n=6): significantly lower fraction

Compound: ruthenium red [RuR]
- Ca2+ response (ΔF/F0) to magnetomechanical stimulation (blocker at 10 μM, MNDs plus MF): larger ΔF/F0 changes; also recorded: increases
- Ca2+ response to magnetomechanical stimulation [1]: returns to baseline levels
- number of responders to magnetomechanical stimulation [2]: No significant difference

Compound: NC1=N[C@H](O)[C@H]2[C@H]3O[C@]4(O)O[C@@H]([C@@H](O)[C@@]2(N1)[C@@H]4O)[C@]3(O)CO [TTX, tetrodotoxin]
- Ca2+ response to magnetomechanical stimulation: failed to block; also recorded: do not affect
- number of responders to magnetomechanical stimulation: No significant difference

Compound: CCCCCC/C=C\CCCCCCCC(=O)O [PA, palmitoleic acid]
- Ca2+ response to magnetomechanical stimulation (blocker at 30-300 μM, MNDs plus MF): failed to block; also recorded: do not affect
- number of responders to magnetomechanical stimulation [2]: No significant difference
